Experiment [1] concerns the target T1, HCV polymerase 1A (Δ21 NS5B, H77) (Hepatitis C virus genotype 1a, UniProt P27958).
T1 construct: 20 to 50 nM Δ21 NS5B
Kind of experiment: biochemical. Conditions: IC50 1a. The gist of the method:
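Radiometric assay with Δ21 NS5B (H77): 20 μM CTP, 20 μM ATP, 1 μM ^3H-UTP, 5 nM template RNA, 2–4 h at room temperature. RNA precipitated with spermine, filter-captured and counted. IC50 from non-linear fit of retained cpm vs inhibitor concentration (tight-binding equation).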

For experiment [2], the target named is T2, HCV polymerase 1B (Δ21 NS5B, BK) (Hepatitis C virus genotype 1b, UniProt P26663).
T2 construct: 20 to 50 nM Δ21 NS5B
T2 sequence (P26663 2420-2989, stated change not applied): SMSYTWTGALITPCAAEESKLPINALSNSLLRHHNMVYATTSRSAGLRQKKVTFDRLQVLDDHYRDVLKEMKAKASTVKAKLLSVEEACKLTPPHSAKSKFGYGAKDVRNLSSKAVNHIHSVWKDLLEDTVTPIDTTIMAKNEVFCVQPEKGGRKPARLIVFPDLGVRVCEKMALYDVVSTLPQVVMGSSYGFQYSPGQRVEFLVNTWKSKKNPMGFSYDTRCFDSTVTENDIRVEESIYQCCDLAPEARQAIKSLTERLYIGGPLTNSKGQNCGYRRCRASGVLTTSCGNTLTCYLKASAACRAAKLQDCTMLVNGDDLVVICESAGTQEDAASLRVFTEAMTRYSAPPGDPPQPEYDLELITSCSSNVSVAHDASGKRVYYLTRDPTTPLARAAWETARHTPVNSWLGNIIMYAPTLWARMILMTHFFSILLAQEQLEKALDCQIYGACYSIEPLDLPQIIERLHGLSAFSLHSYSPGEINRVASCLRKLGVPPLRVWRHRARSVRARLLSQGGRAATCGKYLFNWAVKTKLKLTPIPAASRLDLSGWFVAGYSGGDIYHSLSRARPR
Kind of experiment: biochemical. In a few lines:
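Δ21 NS5B (genotype 1b, BK […]) preincubated 15 min RT with inhibitor, 2 mM MnCl2, pH 7.4, 60–125 μM GTP; started with 20 μM CTP/ATP, 1 μM 3H-UTP, 5 nM template RNA, run 2–4 h RT. Spermine-precipitated RNA filter-captured, scintillation counted; IC50 from tight-binding (Morrison) fit.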

The subject of experiment [3] is genotype 1b-Con1 subgenomic replicon cell line. In words: microbe, parasite or virus in culture. The experiment is classed as cell-based, HCV. Conditions: Hepatitis C virus, read-out: EC50 1b.
The test system of experiment [4] is genotype 1a-H77 subgenomic replicon cell line. In words: microbe, parasite or virus in culture. Format: cell-based, HCV. The following applies: Hepatitis C virus, read-out: EC50 1a.

SMILES strings stand for the structures.

T1 sequence (P27958 2421-2990, stated change not applied): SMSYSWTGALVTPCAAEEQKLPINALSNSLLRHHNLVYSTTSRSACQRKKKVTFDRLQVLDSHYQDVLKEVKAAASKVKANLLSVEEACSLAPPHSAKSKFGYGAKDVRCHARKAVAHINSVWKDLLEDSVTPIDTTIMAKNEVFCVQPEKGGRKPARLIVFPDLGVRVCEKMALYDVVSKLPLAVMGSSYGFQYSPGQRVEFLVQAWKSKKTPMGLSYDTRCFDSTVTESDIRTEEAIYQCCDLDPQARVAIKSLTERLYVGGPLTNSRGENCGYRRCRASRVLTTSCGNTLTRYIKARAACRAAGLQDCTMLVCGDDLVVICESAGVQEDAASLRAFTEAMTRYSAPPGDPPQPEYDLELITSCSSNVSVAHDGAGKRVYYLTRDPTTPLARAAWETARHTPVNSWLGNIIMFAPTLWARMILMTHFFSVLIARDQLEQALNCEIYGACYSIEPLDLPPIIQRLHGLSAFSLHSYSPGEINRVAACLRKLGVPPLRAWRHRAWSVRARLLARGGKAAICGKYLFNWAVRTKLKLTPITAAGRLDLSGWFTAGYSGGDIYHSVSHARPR

As to `COc1c(C(=O)Nc2ccc(N)nc2)cc(N2CCC(=O)NC2=O)cc1C(C)(C)C` [IA-L3-1.100, N-(6-aminopyridin-3-yl)-3-tert-butyl-5-(2,4-dioxotetrahydropyrimidin-1(2H)-yl)-2-methoxy benzamide], the IC50 (in general, the point on the concentration scale where inhibition reaches its midpoint) in experiment [1] is over 1000 nM; in experiment [2], 100 to 1000 nM. Moreover, the EC50 (as a rule, the midpoint of the concentration-response curve) in experiment [3] is over 1000 nM.
`CC(C)(C)c1cc(N2CCC(=O)NC2=O)cc(C(=O)Nc2ccccc2S(N)(=O)=O)c1O` [IA-L3-1.22, 3-tert-butyl-5-(2,4-dioxotetrahydropyrimidin-1(2H)-yl)-2-hydroxy-N-(2-sulfamoylphenyl)benzamide]: the results for the IC50 in experiment [1] and in experiment [2] were 100 to 1000 nM and 10 to 100 nM, respectively. The EC50 in experiment [4] and in experiment [3] was over 1000 nM in each case.
On to `COc1c(C#Cc2cccc(NS(C)(=O)=O)c2)cc(N2CCC(=O)NC2=O)cc1C(C)(C)C` [IA-L2-1.7, N-(3-((3-tert-butyl-5-(2,4-dioxotetrahydropyrimidin-1(2H)-yl)-2-methoxyphenyl)ethynyl)phenyl)methanesulfonamide], for which the IC50 in experiment [1] and in experiment [2] was 10 to 100 nM in each case. Besides, the EC50 in experiment [4] is over 1000 nM; in experiment [3], 100 to 1000 nM.
Turning to `COc1c(C#Cc2ccc(NS(C)(=O)=O)cc2Cl)cc(N2CCC(=O)NC2=O)cc1C(C)(C)C` [IA-L2-1.14, N-(4-((3-tert-butyl-5-(2,4-dioxotetrahydropyrimidin-1(2H)-yl)-2-methoxyphenyl)ethynyl)-3-chlorophenyl)methanesulfonamide], the IC50 in experiment [1] and in experiment [2] was under 10 nM throughout. Also, the EC50 in experiment [4] and in experiment [3] was under 10 nM in each case.
In the case of `COc1c(-c2ccc(/C(C)=N/NS(C)(=O)=O)cc2)cc(N2CCC(=O)NC2=O)cc1C(C)(C)C` [IA-L0-1.2, (E)-N′-(1-(3′-tert-butyl-5′-(2,4-dioxotetrahydropyrimidin-1(2H)-yl)-2′-methoxybiphenyl-4-yl)ethylidene)methanesulfonohydrazide], the half-maximal inhibitory concentration (IC50) in experiment [1] and in experiment [2] was 10 to 100 nM each time. Further, the EC50 fell in the range of 100 to 1000 nM in experiment [4] and 10 to 100 nM in experiment [3].
Consider `COc1c(C(=O)Nc2cc(CNS(C)(=O)=O)cs2)cc(N2CCC(=O)NC2=O)cc1C(C)(C)C` [IA-L3-1.94, 3-tert-butyl-5-(2,4-dioxotetrahydropyrimidin-1(2H)-yl)-2-methoxy-N-(4-(methylsulfonamidomethyl)thiophen-2-yl)benzamide], for which the IC50 in experiment [1] and in experiment [2] was 100 to 1000 nM each time. For the same molecule, the EC50 in experiment [4] is over 1000 nM; in experiment [3] it was 100 to 1000 nM.
In the case of `COc1c(C(=O)Nc2ccc(NS(C)(=O)=O)c([N+](=O)[O-])c2)cc(N2CCC(=O)NC2=O)cc1C(C)(C)C` [IA-L3-1.87, 3-tert-butyl-5-(2,4-dioxotetrahydropyrimidin-1(2H)-yl)-2-methoxy-N-(4-(methylsulfonamido)-3-nitrophenyl)benzamide], the IC50 in experiment [1] was over 1000 nM; in experiment [2], 100 to 1000 nM. Also, in experiment [3], the EC50 is over 1000 nM.
Turning to `COc1c(C(=O)Nc2ccc(NS(C)(=O)=O)nc2)cc(N2CCC(=O)NC2=O)cc1C(C)(C)C` [IA-L3-1.99, 3-tert-butyl-5-(2,4-dioxotetrahydropyrimidin-1(2H)-yl)-2-methoxy-N-(6-(methylsulfonamido)pyridin-3-yl)benzamide], the IC50 fell in the range of 10 to 100 nM in experiment [1] and 100 to 1000 nM in experiment [2]. For the same molecule, in experiment [3], the EC50 is 100 to 1000 nM.
Take `COc1c(C(=O)Nc2ccc(NS(=O)(=O)CCN(CCO)CCO)cc2)cc(N2CCC(=O)NC2=O)cc1C(C)(C)C` [IA-L3-1.56, N-(4-(2-(bis(2-hydroxyethyl)amino)ethylsulfonamido)phenyl)-3-tert-butyl-5-(2,4-dioxo-tetrahydropyrimidin-1(2H)-yl)-2-methoxybenzamide]: the half-inhibitory concentration (IC50) in experiment [1] and in experiment [2] was 100 to 1000 nM throughout. Also, in experiment [3], the EC50 fell in the range of 100 to 1000 nM.
As to `COc1c(C(=O)Nc2ccc(NS(C)(=O)=O)cc2)cc(N2CCC(=O)NC2=O)cc1C(C)C` [IA-L3-1.111, 5-(2,4-dioxotetrahydropyrimidin-1(2H)-yl)-3-isopropyl-2-methoxy-N-(4-(methylsulfonamido)phenyl)benzamide], the half-inhibitory concentration (IC50) lay in the range of 10 to 100 nM in experiment [1] and 100 to 1000 nM in experiment [2]. Moreover, the EC50 in experiment [3] was 100 to 1000 nM.
With `COc1c(C(=O)Nc2ccc(NS(=O)(=O)CCN3CCOCC3)cc2)cc(N2CCC(=O)NC2=O)cc1C(C)(C)C` [IA-L3-1.58, 3-tert-butyl-5-(2,4-dioxotetrahydropyrimidin-1(2H)-yl)-2-methoxy-N-(4-(2-morpholinoethylsulfonamido)phenyl)benzamide], the IC50 in experiment [1] and in experiment [2] was 100 to 1000 nM each time. For the same molecule, in experiment [3], the EC50 lay in the range of 100 to 1000 nM.
As for `COCCS(=O)(=O)Nc1ccc(NC(=O)c2cc(N3CCC(=O)NC3=O)cc(C(C)(C)C)c2OC)cc1` [IA-L3-1.54, 3-tert-butyl-5-(2,4-dioxotetrahydropyrimidin-1(2H)-yl)-2-methoxy-N-(4-(2-methoxyethylsulfonamido)phenyl)benzamide], the IC50 lay within 10 to 100 nM in experiment [1] and 100 to 1000 nM in experiment [2]. In addition, in experiment [3], the EC50 lay within 10 to 100 nM.
On to `COc1c(C(=O)Nc2ccc(NS(=O)(=O)CCO)cc2)cc(N2CCC(=O)NC2=O)cc1C(C)(C)C` [IA-L3-1.122, 3-tert-butyl-5-(2,4-dioxotetrahydropyrimidin-1(2H)-yl)-N-(4-(2-hydroxyethylsulfonamido)phenyl)-2-methoxybenzamide], for which the IC50 in experiment [1] and in experiment [2] was 10 to 100 nM throughout. Besides, the EC50 in experiment [3] lay within 10 to 100 nM.
As for `COC(=O)c1cc(NS(C)(=O)=O)ccc1C#Cc1cc(-n2ccc(=O)[nH]c2=O)cc(C(C)(C)C)c1OC` [IB-L2-1.7, methyl 2-((3-tert-butyl-5-(2,4-dioxo-3,4-dihydropyrimidin-1(2H)-yl)-2-methoxyphenyl)-ethynyl)-5-(methylsulfonamido)benzoate], the results for the half-maximal inhibitory concentration (IC50) in experiment [1] and in experiment [2] were under 10 nM and 10 to 100 nM, respectively. Further, the EC50 in experiment [3] was under 10 nM.
For `COc1c(NC(=O)c2ccc(NS(C)(=O)=O)cc2)cc(N2CCC(=O)NC2=O)cc1C(C)(C)C` [IA-L4-1.9, N-(3-tert-butyl-5-(2,4-dioxotetrahydropyrimidin-1(2H)-yl)-2-methoxyphenyl)-4-(methylsulfonamido)benzamide], the IC50 in experiment [1] and in experiment [2] was 10 to 100 nM in each case. In experiment [3], the EC50 is 10 to 100 nM.
Take `COc1c(C#Cc2cc(F)c(NS(C)(=O)=O)c(F)c2)cc(-n2ccc(=O)[nH]c2=O)cc1C(C)(C)C` [IB-L2-1.4, N-(4-((3-tert-butyl-5-(2,4-dioxo-3,4-dihydropyrimidin-1(2H)-yl)-2-methoxyphenyl)ethynyl)-2,6-difluorophenyl)methanesulfonamide]: the 50% inhibitory concentration (IC50) in experiment [1] and in experiment [2] was 10 to 100 nM in each case. For the same molecule, the EC50 in experiment [3] lay within 100 to 1000 nM.
As to `COc1c(C#Cc2cnc(NS(C)(=O)=O)cn2)cc(-n2ccc(=O)[nH]c2=O)cc1C(C)(C)C` [IB-L2-1.9, N-(5-((3-tert-butyl-5-(2,4-dioxo-3,4-dihydropyrimidin-1(2H)-yl)-2-methoxyphenyl)ethynyl)-pyrazin-2-yl)methanesulfonamide], the values for the IC50 in experiment [1] and in experiment [2] were 100 to 1000 nM and 10 to 100 nM, respectively. Also, the EC50 in experiment [4] is over 1000 nM.
For `COc1c(C#Cc2ccc(NS(C)(=O)=O)cc2Cl)cc(-n2ccc(=O)[nH]c2=O)cc1C(C)(C)C` [IB-L2-1.2, N-(4-((3-tert-butyl-5-(2,4-dioxo-3,4-dihydropyrimidin-1(2H)-yl)-2-methoxyphenyl)ethynyl)-3-chlorophenyl)methanesulfonamide], the IC50 is under 10 nM in experiment [1] and 10 to 100 nM in experiment [2]. Moreover, the EC50 in experiment [3] was under 10 nM.
Consider `COc1c(C(=O)Nc2ccc(NS(C)(=O)=O)cc2)cc(-n2c(C)cc(=O)[nH]c2=O)cc1C(C)(C)C` [IB-L3-1.3, 3-tert-butyl-2-methoxy-5-(6-methyl-2,4-dioxo-3,4-dihydropyrimidin-1(2H)-yl)-N-(4-(methylsulfonamido)phenyl)benzamide], for which the IC50 in experiment [1] was 100 to 1000 nM; in experiment [2], over 1000 nM. The half-maximal effective concentration (EC50) in experiment [3] was 100 to 1000 nM.
As for `CC(C)(C)c1cc(N2CCC(=O)NC2=O)cc(C(=O)Nc2ccc(NS(=O)(=O)CCN3CCOCC3)cc2)c1O` [IA-L3-1.14, 3-tert-butyl-5-(2,4-dioxotetrahydropyrimidin-1(2H)-yl)-2-hydroxy-N-(4-(2-morpholinoethylsulfonamido)phenyl)benzamide], the IC50 is 10 to 100 nM in experiment [1] and under 10 nM in experiment [2]. Also, the EC50 in experiment [3] was 100 to 1000 nM.
With `COc1c(C(=O)Nc2ccc(NS(C)(=O)=O)cn2)cc(N2CCC(=O)NC2=O)cc1C(C)(C)C` [IA-L3-1.102, 3-tert-butyl-5-(2,4-dioxotetrahydropyrimidin-1(2H)-yl)-2-methoxy-N-(5-(methylsulfonamido)pyridin-2-yl)benzamide], the half-inhibitory concentration (IC50) in experiment [1] and in experiment [2] was 100 to 1000 nM throughout. The EC50 in experiment [3] was 100 to 1000 nM.
With `COc1c(C#Cc2ccc(NS(C)(=O)=O)cc2C(C)(C)C)cc(-n2ccc(=O)[nH]c2=O)cc1C(C)(C)C` [IB-L2-1.10, N-(3-tert-butyl-4-((3-tert-butyl-5-(2,4-dioxo-3,4-dihydropyrimidin-1(2H)-yl)-2-methoxy-phenyl)ethynyl)phenyl)methanesulfonamide], the figures for the half-maximal inhibitory concentration (IC50) in experiment [1] and in experiment [2] were under 10 nM and 10 to 100 nM, respectively. Also, in experiment [3], the EC50 is 10 to 100 nM.
